# Assays:
# [1] = Pharmacokinetic evaluation in female Balb/c mice; format: in vivo; settings: mouse, plasma
# Experimental: Healthy adult female Balb/c mice used in this study were purchased from Shanghai Lingchang Biotechnology Co., Ltd.
# 1.11 mg of the compound to be tested was accurately weighed, 109.8 μL of DMSO was added and vortexed for 1 minute, 109.8 μL of solutol was added and vortexed for 1 minute to obtain a clear solution, then 878 μL of water was added and vortexed for 1 minute to obtain the final solution with a final concentration of 1 mg/mL, the dosing vehicle was 10% DMSO+10% solutol+80% water. The solution in the intravenous injection group was filtered with a 2 μm filter before administration.
# 1.61 mg of the compound to be tested was accurately weighed, 796 μL of 1% HPMC was added, sonicated at 45° C. for 20 minutes, and stirred for 15 minutes to obtain a homogeneous suspension solution with a final concentration of 2 mg/mL. The dosing vehicle was 1% HPMC.
# 4 female Balb/c mice were divided into 2 groups according to 2 mice in each group. The first group was given 2 mg/kg of the compound to be tested by intravenous injection; the second group was given 10 mg/kg of the compound to be tested by gavage.
# The blood was collected from two animals at each time point by continuous blood collection. 30 μL of whole blood was collected before administration and at 0.0833, 0.25, 0.5, 1, 2 (only gavage group), 4, 6, 8 (only intravenous group), and 24 hours after administration, respectively. The whole blood was placed in an anticoagulant tube, centrifuged at 3200 g for 10 minutes at 4° C., the plasma was prepared and stored at −80° C. Drug concentration in the plasma was determined by LC/MS-MS.
# HCT116 cells = experiment: HCT116 cell activity test (CellTiter-Glo); format: cell-based; settings: Homo sapiens, HCT-116, 96 h, 4 days, read-out: Antiproliferative activity (IC50) HCT 116
# Experimental: Experimental materials: McCoy' 5a medium, fetal bovine serum, and penicillin/streptomycin antibiotics were purchased from Vicente. CellTiter-Glo (chemiluminescence detection reagent for cell viability) reagent was purchased from Promega. The HCT116 cell line was purchased from Cobioer Biosciences Co., Ltd. Nivo Multilabel Analyzer (PerkinElmer).
# Experimental method: HCT116 cells were seeded in a white 96-well plate, 80 μL of cell suspension per well, which contained 1000 HCT116 cells. The cell plate was incubated overnight in a carbon dioxide incubator. The compounds to be tested were diluted 5-fold to the 9th concentration with a row gun, that is, from 2 mM to 5.12 nM, and a double-replicate well experiment was set up. 78 μL of medium was added to the middle plate, and then transferred 2 μL per well of the gradient diluted compound to the middle plate according to the corresponding position, mixed well and transferred 20 μL per well to the cell plate. […] Another cell plate was prepared, and the signal value was read as the maximum value (Max value in the equation below) on the day of drug addition to participate in data analysis. 25 μL of chemiluminescence detection reagent for cell viability was added to each well of the cell plate, and incubated at room temperature for 10 minutes to stabilize the luminescence signal. A multi-label analyzer was used for reading. […]
# CDK9/CyclinT1 = target: T1, CDK9/CyclinT1 (Homo sapiens, UniProt P50750); experiment: CDK9/CyclinT1 kinase activity assay (ADP-Glo); format: biochemical; settings: 100 μM ATP, 25° C., 60 minutes; read-out: Enzyme activity data (IC50) CDK9/CyclinT1
# T1 construct: purchased Carna
# Experimental: Experimental materials: CDK9/CyclinT1 kinase was purchased from Carna, the ADP-Glo detection kit was purchased from Promega, the PKDTide substrate and kinase reaction buffer were purchased from Signalchem. Nivo Multilabel Analyzer (PerkinElmer).
# Experimental method: Kinase buffer dilution enzyme in the kit, substrate, adenosine triphosphate and inhibitor were used. […] The reaction system was placed at 25° C. and reacted for 60 minutes. After the reaction was complete, 5 μL of ADP-Glo reagent was added to each well, and the reaction was continued at 25° C. for 40 minutes. At the end of the reaction, 10 μL of kinase detection reagent was added to each well. After the reaction was continued at 25° C. for 30 minutes, the chemiluminescence was read by a multi-label analyzer with an integration time of 0.5 seconds.
# Table 1 provides the enzymatic inhibitory activities of the compounds of the present invention on CDK2/CyclinA2, CDK2/CyclinE1, CDK4/CyclinD1, CDK6/CyclinD1, CDK9/CyclinT1.
# CDK2/CyclinA2 = target: T2, CDK2/CyclinA2 (Homo sapiens, UniProt P24941); experiment: CDK2/CyclinA2 kinase activity test (ADP-Glo); format: biochemical; settings: 50 μM ATP, 25° C., 60 minutes; read-out: Enzyme activity data (IC50) CDK2/cyclinA
# T2 construct: purchased Promega
# Experimental: Experimental materials: CDK2/CyclinA2 kinase detection kit was purchased from Promega. Nivo Multilabel Analyzer (PerkinElmer).
# Experimental method: Kinase buffer dilution enzyme in the kit, substrate, adenosine triphosphate and inhibitor were used. The compounds to be tested were diluted 5-fold to the 8th concentration with a row gun, that is, from 50 μM to 0.65 nM, the concentration of DMSO was 5%, and a double-replicate well experiment was set up. 1 μL of each concentration gradient of inhibitor, 2 μL of CDK2/CyclinA2 enzyme (1.6 ng), and 2 μL of a mixture of substrate and ATP (50 μM of adenosine triphosphate, 0.1 μg/μL of substrate) were added to the microplate, and at this time, the final concentration gradient of compound was diluted from 10 μM to 0.13 nM. The reaction system was placed at 25° C. and reacted for 60 minutes. After the reaction was complete, 5 μL of ADP-Glo reagent was added to each well, and the reaction was continued at 25° C. for 40 minutes. At the end of the reaction, 10 μL of kinase detection reagent was added to each well. After the reaction was continued at 25° C. for 30 minutes, the chemiluminescence was read by a multi-label analyzer with an integration time of 0.5 seconds.
# Using the equation (Sample−Min)/(Max−Min)×100% to convert the original data into inhibition rate, the IC50 value can be obtained by curve fitting with four parameters (obtained by the mode of log(inhibitor) vs. response—Variable slope in GraphPad Prism). Table 1 provides the enzymatic inhibitory activities of the compounds of the present invention on CDK2/CyclinA2, CDK2/CyclinE1, CDK4/CyclinD1, CDK6/CyclinD1, CDK9/CyclinT1.
# T1 sequence (P50750 whole entry): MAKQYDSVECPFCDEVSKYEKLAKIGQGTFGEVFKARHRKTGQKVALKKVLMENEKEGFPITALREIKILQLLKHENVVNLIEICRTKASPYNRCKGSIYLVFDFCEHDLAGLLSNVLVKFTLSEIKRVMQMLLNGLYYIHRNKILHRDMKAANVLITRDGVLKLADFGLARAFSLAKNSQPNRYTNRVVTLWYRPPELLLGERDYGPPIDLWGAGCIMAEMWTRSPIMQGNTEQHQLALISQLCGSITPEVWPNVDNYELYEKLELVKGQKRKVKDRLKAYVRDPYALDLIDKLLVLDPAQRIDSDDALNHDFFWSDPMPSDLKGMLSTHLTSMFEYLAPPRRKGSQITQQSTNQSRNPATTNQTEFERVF
# T1 sequence (O60563 whole entry partner): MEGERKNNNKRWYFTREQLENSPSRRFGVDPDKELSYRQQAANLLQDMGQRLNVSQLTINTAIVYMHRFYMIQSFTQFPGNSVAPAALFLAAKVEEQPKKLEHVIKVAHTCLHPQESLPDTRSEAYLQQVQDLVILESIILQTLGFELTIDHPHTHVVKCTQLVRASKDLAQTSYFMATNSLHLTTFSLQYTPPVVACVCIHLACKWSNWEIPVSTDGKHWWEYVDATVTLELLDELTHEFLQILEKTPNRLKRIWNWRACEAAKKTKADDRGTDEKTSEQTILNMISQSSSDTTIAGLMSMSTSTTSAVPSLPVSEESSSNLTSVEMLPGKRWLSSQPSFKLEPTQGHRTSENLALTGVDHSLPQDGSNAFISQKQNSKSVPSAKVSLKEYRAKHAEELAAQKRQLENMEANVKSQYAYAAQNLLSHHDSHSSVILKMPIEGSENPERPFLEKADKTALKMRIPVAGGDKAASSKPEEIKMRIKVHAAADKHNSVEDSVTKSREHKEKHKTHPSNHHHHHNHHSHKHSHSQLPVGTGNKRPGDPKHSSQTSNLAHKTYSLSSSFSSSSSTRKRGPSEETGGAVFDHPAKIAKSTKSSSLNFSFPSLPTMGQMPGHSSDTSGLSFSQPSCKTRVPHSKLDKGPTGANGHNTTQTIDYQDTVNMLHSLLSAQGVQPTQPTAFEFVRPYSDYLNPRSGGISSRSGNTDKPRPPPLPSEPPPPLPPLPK
smiles,measurement,setting,value
C[C@@]1(O)CCC[C@H]1N1C(=O)CCc2cnc(NC3CCN(S(C)(=O)=O)CC3)nc21 [Compound 1A],clearance,"[1]; Intravenous Injection: 2 mg/kg, read-out: Clearance Rate Cl",36.9 mL/min/kg
same,half-life,"[1]; Intravenous Injection: 2 mg/kg, read-out: Half-Life T1/2 (converted)",16.8 min
same,bioavailability,"[1]; Oral Administration: 10 mg/kg, read-out: Oral Bioavailability F",31.4%
same,AUC(0-t),"[1]; Oral Administration: 10 mg/kg, read-out: Oral Exposure AUC0-t",3.37 µM·h
same,IC50,HCT116 cells,70 nM
same,IC50,CDK9/CyclinT1,110 nM
same,IC50,CDK2/CyclinA2,0.28 nM

# — patent publication US12679837B2, “Aminopyrimidine compound as CDK2/4/6 triple inhibitor” (CISEN PHARMACEUTICAL CO., LTD, priority 2019, dated 2026)
